Assay results taken from publication PMC7327804 (Data in Brief, 2020).

Tests used:
[1] = molecular target: T1, HA-hNTS2 receptor (Homo sapiens, UniProt O95665); assay: Cell-surface ELISA for internalization of HA-hNTS2 receptor; type: cell-based; details: CHO-K1 cells transfected with HA-hNTS2, 1 µM ligand, 60 min at 37 °C in serum-free media, mean ± SEM of at least three independent determinations
T1 construct: expressed in transfected cells; host or cells: CHO-K1, transient transfection
Protocol: Receptor internalization using CHO-K1 cells transiently transfected with either HA-NTS1 or HA-NTS2 was carried out as previously described in details [9], [10], [11]. […] Cells were then washed with PBS and remaining ELISA steps form the detailed protocol were followed and unchanged. Absorbance was read at 450 nm and data were normalized according to the protocol.

[2] = test system: NTS1 (p42/p44 MAPK phosphorylation); assay: Western blot of p42/p44 (ERK1/2) phosphorylation in CHO-K1 cells stably expressing NTS1; type: cell-based, human; details: CHO-K1 cells stably expressing NTS1, serum-starved, 1 µM ligand, various time points
Protocol: (§1) Cells stably expressing NTS1 or NTS2 were grown for 48 h in complete culture media before being incubated for 16 h in serum-free media. Cells were then stimulated with either NT or JMV2009. Aspiration of media and addition of ice-cold PBS blocked any further protein phosphorylation. Cells were then lysed in RIPA containing proteases and phosphatases inhibitors before being centrifuged at 8000 g for 15 min.
(§2) Separation, transfer and blotting steps were performed as described previously using anti-phosphorylated ERK1/2 (Cell Signaling, cat# 4376S, lot 18, Danvers, MA; 1:1000, in TBS-T, 1% BSA) or anti-ERK1/2 (Cell Signaling, cat# 4695S, lot 28; 1:1000, in TBS-T, 1% BSA) as primary antibodies and HRP-conjugated anti-rabbit IgG from goat (Cell Signaling, cat# 7074S, lot 28; 1:5000, in TBS-T, 1% BSA) as secondary antibody for detection.

[3] = test system: NTS2 (p42/p44 MAPK phosphorylation); assay: Western blot of p42/p44 (ERK1/2) phosphorylation in 1321N1 cells stably expressing NTS2; type: cell-based, human; details: 1321N1 cells stably expressing NTS2, serum-starved, 1 µM ligand, various time points
Protocol: as §1, §2

T1 sequence (O95665 whole entry): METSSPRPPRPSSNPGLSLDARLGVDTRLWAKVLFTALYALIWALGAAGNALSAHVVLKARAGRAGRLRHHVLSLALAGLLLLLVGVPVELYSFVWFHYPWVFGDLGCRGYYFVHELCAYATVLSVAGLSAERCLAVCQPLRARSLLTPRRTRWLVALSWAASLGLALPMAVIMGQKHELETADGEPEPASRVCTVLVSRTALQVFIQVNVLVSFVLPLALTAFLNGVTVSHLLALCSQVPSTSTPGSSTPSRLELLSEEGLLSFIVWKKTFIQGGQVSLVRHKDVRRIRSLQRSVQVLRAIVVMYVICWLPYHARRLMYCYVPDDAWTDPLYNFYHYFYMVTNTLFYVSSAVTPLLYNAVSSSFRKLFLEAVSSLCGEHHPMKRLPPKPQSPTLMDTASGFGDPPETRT

CC[C@H](C)[C@H](NC(=O)[C@H](Cc1ccc(O)cc1)NC(=O)[C@@H]1C[Si](C)(C)CN1C(=O)[C@H](CCCCN)NC(=O)[C@@H](N)CCCCN)C(=O)N[C@@H](CC(C)C)C(=O)O [JMV2009]
NTS2 internalization [1]: 15.1 ± 9.8%
phosphorylation of p42/p44 proteins (ERK 1/2), NTS1 cells [2]: time-dependent phosphorylation
phosphorylation of p42/p44 proteins (ERK 1/2), NTS2 cells [3]: time-dependent phosphorylation
